Reference: patent US20170354148A1, “SAFENED HERBICIDAL COMPOSITIONS CONTAINING HALAUXIFEN AND METHODS OF USE THEREOF IN BRASSICA SPECIES” (Dow AgroSciences LLC, priority 2016, published 2017)

System: Spring Argentine canola (Brassica napus, BRSNS)
Test: Example 3 field trials (Canada), postemergence crop safety, visual phytotoxicity

Question: Which results are given for `O=C(O)c1nc(Cl)ccc1Cl` [Clopyralid-olamine, 2-hydroxyethanaminium 3,6-dichloro-2-pyridinecarboxylate]?
Answer: Mean % Visual Injury (Table 22, 8DAAA, halauxifen-methyl 5, clopyralid-olamine 150, quinclorac 101 g ae/ha, alone or mixed): 0.5%; Mean % Visual Injury (Table 22, 14DAAA, halauxifen-methyl 5, clopyralid-olamine 150, quinclorac 101 g ae/ha, alone or mixed): 0.5%; Mean % Visual Injury (Table 22, 40DAAA, halauxifen-methyl 5, clopyralid-olamine 150, quinclorac 101 g ae/ha, alone or mixed): 0.0%; Mean % Visual Injury (Table 22, 81DAAA, halauxifen-methyl 5, clopyralid-olamine 150, quinclorac 101 g ae/ha, alone or mixed): 0.0%; Mean % Visual Injury (Table 23, 7DAAA, halauxifen-methyl 5, clopyralid-olamine 150 g ae/ha, alone or mixed): 2.0%; Mean % Visual Injury (Table 23, 17DAAA, halauxifen-methyl 5, clopyralid-olamine 150 g ae/ha, alone or mixed): 1.0%; Mean % Visual Injury (Table 23, 32DAAA, halauxifen-methyl 5, clopyralid-olamine 150 g ae/ha, alone or mixed): 2.0%; Mean % Visual Injury (Table 23, 49DAAA, halauxifen-methyl 5, clopyralid-olamine 150 g ae/ha, alone or mixed): 0.8%; Mean % Visual Injury (Table 24, 7DAAA, halauxifen-methyl 5, clopyralid-olamine 150 g ae/ha alone, or both mixed with isoxadifen-ethyl 20 g ae/ha): 2.0%; Mean % Visual Injury (Table 24, 17DAAA, halauxifen-methyl 5, clopyralid-olamine 150 g ae/ha alone, or both mixed with isoxadifen-ethyl 20 g ae/ha): 1.0%; Mean % Visual Injury (Table 24, 32DAAA, halauxifen-methyl 5, clopyralid-olamine 150 g ae/ha alone, or both mixed with isoxadifen-ethyl 20 g ae/ha): 2.0%; Mean % Visual Injury (Table 24, 49DAAA, halauxifen-methyl 5, clopyralid-olamine 150 g ae/ha alone, or both mixed with isoxadifen-ethyl 20 g ae/ha): 0.8%; Mean % Visual Injury (Table 28, 7DAAA, halauxifen-methyl 5, clopyralid-olamine 150, quinclorac 101 g ae/ha, alone or mixed): 2.0%; Mean % Visual Injury (Table 28, 17DAAA, halauxifen-methyl 5, clopyralid-olamine 150, quinclorac 101 g ae/ha, alone or mixed): 1.0%; Mean % Visual Injury (Table 28, 32DAAA, halauxifen-methyl 5, clopyralid-olamine 150, quinclorac 101 g ae/ha, alone or mixed): 2.0%; Mean % Visual Injury (Table 28, 49DAAA, halauxifen-methyl 5, clopyralid-olamine 150, quinclorac 101 g ae/ha, alone or mixed): 0.8%; Mean % Visual Growth Inhibition (Trial 1, 16DAA1, halauxifen-methyl 2.5, clopyralid-olamine 150 g ae/ha, alone or mixed): 5.5%; Mean % Visual Growth Inhibition (Trial 1, 30DAA1, halauxifen-methyl 2.5, clopyralid-olamine 150 g ae/ha, alone or mixed): 6.3%; Mean % Visual Growth Inhibition (Trial 1, 58DAA1, halauxifen-methyl 2.5, clopyralid-olamine 150 g ae/ha, alone or mixed): 2.8%; Mean % Visual Growth Inhibition (Trial 2, 32DAA1, halauxifen-methyl 0.62, clopyralid-olamine 150 g ae/ha, alone or mixed): 2.8%; Mean % Visual Growth Inhibition (Trial 2, 32DAA1, halauxifen-methyl 1.25, clopyralid-olamine 150 g ae/ha, alone or mixed): 2.8%; Mean % Visual Growth Inhibition (Trial 2, 32DAA1, halauxifen-methyl 2.5, clopyralid-olamine 150 g ae/ha, alone or mixed): 2.8%; Mean % Visual Growth Inhibition (Trial 2, 49DAA1, halauxifen-methyl 0.62, clopyralid-olamine 150 g ae/ha, alone or mixed): 2.8%; Mean % Visual Growth Inhibition (Trial 2, 49DAA1, halauxifen-methyl 1.25, clopyralid-olamine 150 g ae/ha, alone or mixed): 2.8%; Mean % Visual Growth Inhibition (Trial 2, 49DAA1, halauxifen-methyl 2.5, clopyralid-olamine 150 g ae/ha, alone or mixed): 2.8%; Mean % Visual Growth Inhibition (Trial 3, 8DAA1, halauxifen-methyl 5, clopyralid-olamine 150 g ae/ha, alone or mixed, line r23): 0.8%; Mean % Visual Growth Inhibition (Trial 3, 8DAA1, halauxifen-methyl 5, clopyralid-olamine 150 g ae/ha, alone or mixed, line r25): 0.3%; Mean % Visual Growth Inhibition (Trial 3, 8DAA1, halauxifen-methyl 10, clopyralid-olamine 150 g ae/ha, alone or mixed, line r22): 0.8%; Mean % Visual Growth Inhibition (Trial 3, 8DAA1, halauxifen-methyl 10, clopyralid-olamine 150 g ae/ha, alone or mixed, line r24): 0.3%; Mean % Visual Growth Inhibition (Trial 3, 17DAA1, halauxifen-methyl 5, clopyralid-olamine 150 g ae/ha, alone or mixed, line r27): 1.0%; Mean % Visual Growth Inhibition (Trial 3, 17DAA1, halauxifen-methyl 5, clopyralid-olamine 150 g ae/ha, alone or mixed, line r29): 1.3%; Mean % Visual Growth Inhibition (Trial 3, 17DAA1, halauxifen-methyl 10, clopyralid-olamine 150 g ae/ha, alone or mixed, line r26): 1.0%; Mean % Visual Growth Inhibition (Trial 3, 17DAA1, halauxifen-methyl 10, clopyralid-olamine 150 g ae/ha, alone or mixed, line r28): 1.3%; Mean % Visual Growth Inhibition (Trial 3, 35DAA1, halauxifen-methyl 10, clopyralid-olamine 150 g ae/ha, alone or mixed): 0.8%; Mean % Visual Growth Inhibition (Trial 3, 48DAA1, halauxifen-methyl 5, clopyralid-olamine 150 g ae/ha, alone or mixed, line r31): 2.0%; Mean % Visual Growth Inhibition (Trial 3, 48DAA1, halauxifen-methyl 5, clopyralid-olamine 150 g ae/ha, alone or mixed, line r32): 0.8%; Mean % Visual Growth Inhibition (Trial 4, 13DAA1, halauxifen-methyl 10, clopyralid-olamine 150 g ae/ha, alone or mixed, line r33): 0.0%; Mean % Visual Growth Inhibition (Trial 4, 13DAA1, halauxifen-methyl 10, clopyralid-olamine 150 g ae/ha, alone or mixed, line r34): 0.0%; Mean % Visual Growth Inhibition (Trial 5, 7DAA1, halauxifen-methyl 0.62, clopyralid-olamine 150 g ae/ha, alone or mixed): 1.3%; Mean % Visual Growth Inhibition (Trial 5, 7DAA1, halauxifen-methyl 1.25, clopyralid-olamine 150 g ae/ha, alone or mixed): 1.3%; Mean % Visual Growth Inhibition (Trial 5, 7DAA1, halauxifen-methyl 2.5, clopyralid-olamine 150 g ae/ha, alone or mixed): 1.3%; Mean % Visual Growth Inhibition (Trial 5, 7DAA1, halauxifen-methyl 5, clopyralid-olamine 150 g ae/ha, alone or mixed): 1.3%; Mean % Visual Growth Inhibition (Trial 6, 33DAA1, halauxifen-methyl 5, clopyralid-olamine 150 g ae/ha, alone or mixed): 0.5%; Mean % Visual Growth Inhibition (Trial 7, 8DAA1, halauxifen-methyl 5, clopyralid-olamine 150 g ae/ha, alone or mixed): 1.5%; Mean % Visual Growth Inhibition (Trial 7, 15DAA1, halauxifen-methyl 0.62, clopyralid-olamine 150 g ae/ha, alone or mixed): 1.0%; Mean % Visual Growth Inhibition (Trial 7, 15DAA1, halauxifen-methyl 5, clopyralid-olamine 150 g ae/ha, alone or mixed): 1.0%; Mean % Visual Growth Inhibition (Trial 8, 7DAA1, halauxifen-methyl 5, clopyralid-olamine 150 g ae/ha, alone or mixed): 0.5%; Mean % Visual Growth Inhibition (Trial 8, 7DAA1, halauxifen-methyl 10, clopyralid-olamine 150 g ae/ha, alone or mixed, line r44): 0.0%; Mean % Visual Growth Inhibition (Trial 8, 7DAA1, halauxifen-methyl 10, clopyralid-olamine 150 g ae/ha, alone or mixed, line r45): 0.0%; Mean % Visual Growth Inhibition (Trial 8, 7DAA1, halauxifen-methyl 10, clopyralid-olamine 150 g ae/ha, alone or mixed, line r46): 1.3%; Mean % Visual Growth Inhibition (Trial 8, 7DAA1, halauxifen-methyl 10, clopyralid-olamine 150 g ae/ha, alone or mixed, line r47): 1.5%; Mean % Visual Growth Inhibition (Trial 8, 15DAA1, halauxifen-methyl 5, clopyralid-olamine 150 g ae/ha, alone or mixed): 0.0%; Mean % Visual Growth Inhibition (Trial 8, 15DAA1, halauxifen-methyl 10, clopyralid-olamine 150 g ae/ha, alone or mixed, line r49): 0.0%; Mean % Visual Growth Inhibition (Trial 8, 15DAA1, halauxifen-methyl 10, clopyralid-olamine 150 g ae/ha, alone or mixed, line r50): 0.5%; Mean % Visual Growth Inhibition (Trial 9, 6DAA1, halauxifen-methyl 5, clopyralid-olamine 150 g ae/ha, alone or mixed): 0.0%; Mean % Visual Growth Inhibition (Trial 9, 23DAA1, halauxifen-methyl 2.5, clopyralid-olamine 150 g ae/ha, alone or mixed): 0.0%; Mean % Visual Growth Inhibition (Trial 9, 23DAA1, halauxifen-methyl 5, clopyralid-olamine 150 g ae/ha, alone or mixed): 0.0%; Mean % Visual Growth Inhibition (Trial 9, 33DAA1, halauxifen-methyl 5, clopyralid-olamine 150 g ae/ha, alone or mixed): 0.0%; Mean % Visual Growth Inhibition (Trial 9, 59DAA1, halauxifen-methyl 5, clopyralid-olamine 150 g ae/ha, alone or mixed): 0.0%; Mean % Visual Growth Inhibition (Trial 10, 17DAA1, halauxifen-methyl 5, clopyralid-olamine 100 g ae/ha, alone or mixed): 0.0%; Mean % Visual Growth Inhibition (Trial 10, 17DAA1, halauxifen-methyl 5, clopyralid-olamine 150 g ae/ha, alone or mixed): 0.0%; Mean % Visual Growth Inhibition (Trial 10, 17DAA1, halauxifen-methyl 5, clopyralid-olamine 200 g ae/ha, alone or mixed): 0.0%; Mean % Visual Growth Inhibition (Trial 10, 27DAA1, halauxifen-methyl 5, clopyralid-olamine 150 g ae/ha, alone or mixed): 0.0%; Mean % Visual Growth Inhibition (Trial 10, 27DAA1, halauxifen-methyl 5, clopyralid-olamine 200 g ae/ha, alone or mixed): 1.7%; Mean % Visual Growth Inhibition (Trial 11, 7DAA1, halauxifen-methyl 5, clopyralid-olamine 150 g ae/ha, alone or mixed): 2.5%; Mean % Visual Growth Inhibition (Trial 11, 15DAA1, halauxifen-methyl 0.62, clopyralid-olamine 150 g ae/ha, alone or mixed): 3.0%; Mean % Visual Growth Inhibition (Trial 11, 15DAA1, halauxifen-methyl 1.25, clopyralid-olamine 150 g ae/ha, alone or mixed): 3.0%; Mean % Visual Growth Inhibition (Trial 12, 15DAA1, halauxifen-methyl 10, clopyralid-olamine 150 g ae/ha, alone or mixed): 0.0%; Mean % Visual Growth Inhibition (Trial 12, 27DAA1, halauxifen-methyl 5, clopyralid-olamine 150 g ae/ha, alone or mixed): 1.0%
